In PubChem BioAssay (NCI) one finds TGI and GI50 data, which are given here for 13 molecules.

≈ marks a conversion by molar mass, not a printed value. Where “and” joins values, the source holds several entries; their conditions need not be identical. Equal entries are not always repeated.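 Dose response: 5 concentrations. Exposure: 48 h. Format: 96-well plates. Endpoint: linear interpolation; highest concentration if not reached. Abbreviation: GI50, concentration required for 50% inhibition of growth. TGI is the concentration that stops growth completely.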 Some results are limits rather than exact numbers.

Some test systems named below: DMS 114 small cell lung; DMS 273 small cell lung; HOP-18 NSCLC; SNB-78 CNS; BT-549 breast; DU-145 prostate; HS 578T breast; MDA-MB-435; PC-3 prostate.
Holding throughout (test): inhibition of tumour cell growth, NCI panel, 48 h

Turning to `O=C1NC2CCC(C2)C1c1ccccc1` (stereo unspecified), the TGI in the assay with DMS 114 small cell lung, in the assay with DMS 273 small cell lung, with HOP-18 NSCLC and with SNB-78 CNS was over 100 µM each time.

In the case of `NC1CCCCC1N.O=S(=O)([O-])CCCN1CCOCC1.O=S(=O)([O-])CCCN1CCOCC1.[Pt+4]`, the GI50 is 4.87 µM in the assay with DMS 273 small cell lung, 16 µM in the assay with HOP-18 NSCLC and over 100 µM with SNB-78 CNS. In addition, the TGI in the assay with DMS 273 small cell lung is over 100 µM; in the assay on HOP-18 NSCLC, over 89.2 µM; in the assay with SNB-78 CNS, over 100 µM.

As for `Cc1ccc(NC(=O)CCC/C(CC(=O)c2ccc(Br)cc2)=N/NC(=O)CC#N)cc1`, the TGI in the assay on DMS 114 small cell lung and with SNB-78 CNS was over 100 µM each time.

Regarding `CCCC(C)C[C@@H](C)CC(C)/C=C(\C)c1oc(=O)c(C)c(O)c1C` (stereo partly specified) (tested in a mixture with another compound), the TGI was 32.2 µM with DMS 114 small cell lung, 32.4 µM in the assay on DMS 273 small cell lung and 45.9 µM in the assay on SNB-78 CNS.

As for `C=C1C(=O)[C@@]23CC1C(O)[C@@H](OC(C)=O)[C@@H]2C1(C)C(OC(C)=O)C[C@@H](OC(C)=O)C(C)(C)[C@@H]1C[C@H]3OC(C)=O` (stereo partly specified), the GI50 with BT-549 breast is 1.87 µg/mL; in the assay on DMS 114 small cell lung, 2.08 µg/mL (≈ 3.89 µM); with DU-145 prostate, 16.9 µg/mL; in the assay on HS 578T breast, 2 µg/mL; in the assay on MDA-MB-435, 2.88 µg/mL; in the assay on PC-3 prostate it was 10.6 µg/mL. The TGI in the assay with BT-549 breast is 3.04 µM and 3.31 µg/mL; in the assay with DMS 114 small cell lung it was 4.6 µg/mL; with DU-145 prostate, > 10 µM and 30.6 µg/mL; in the assay on HS 578T breast, > 10 µM and 5.83 µg/mL; in the assay on MDA-MB-435 it was 9.51 µg/mL; with PC-3 prostate it was > 10 µM and 22.4 µg/mL.

Take `CC/C(=C(/CC)c1ccc(O)cc1)c1ccc([O-])cc1.CC/C(=C(/CC)c1ccc(O)cc1)c1ccc([O-])cc1.O=C([CH-]C(=O)c1ccccc1)c1ccccc1.O=C([CH-]C(=O)c1ccccc1)c1ccccc1.[Ti+4]`: the GI50 is 16.3 µM in the assay with DMS 273 small cell lung, 24.4 µM in the assay with HOP-18 NSCLC and 27.1 µM in the assay on SNB-78 CNS. The TGI in the assay with DMS 273 small cell lung is over 100 µM; in the assay with HOP-18 NSCLC, 39.3 µM; in the assay with SNB-78 CNS, over 100 µM.

`COc1cc2c(cc1OCCCCCCN1CCN(c3ncnc4ccccc34)CC1)N=CC1CCCN1C2=O` (stereo unspecified): the GI50 was 0.0422 µM in the assay with BT-549 breast; 0.12 µM with DU-145 prostate; 0.0887 µM in the assay on HS 578T breast; 0.0905 µM in the assay with MDA-MB-435; 0.0508 µM with PC-3 prostate. Besides, the TGI is 0.227 µM with BT-549 breast; 0.548 µM in the assay with DU-145 prostate; 0.666 µM with HS 578T breast; 0.252 µM in the assay on MDA-MB-435; 0.742 µM in the assay with PC-3 prostate.

With `Cc1cc2cc3c(C)cc(=O)oc3c(C)c2o1`, the TGI in the assay with BT-549 breast, in the assay on DU-145 prostate, in the assay with HS 578T breast, in the assay on MDA-MB-435 and with PC-3 prostate was over 100 µM each time.

`COC(=O)c1c2c(c(C)[n+]([O-])c1C)C(=O)C=C(NCc1ccc(OC)cc1)C2=O`: the GI50 in the assay with BT-549 breast is 4.29 µM; in the assay on DU-145 prostate, 2.32 µM; in the assay on HS 578T breast, 5.32 µM; in the assay on MDA-MB-435, 0.598 µM; in the assay on PC-3 prostate, 1.02 µM. The TGI with BT-549 breast came to 15.8 µM; in the assay with DU-145 prostate, 5.89 µM; with HS 578T breast it was 21.6 µM; in the assay on MDA-MB-435, 1.15 µM; in the assay on PC-3 prostate, 6.55 µM.

`COc1ccc(-c2nc3ncccn3c2/C=C/C(=O)c2cc(OC)c(OC)c(OC)c2)cc1`: the GI50 with BT-549 breast was 1.45 µM; in the assay on DU-145 prostate, 2.55 µM; in the assay with HS 578T breast, 1.91 µM; in the assay on MDA-MB-435, 2.28 µM; with PC-3 prostate, 4.32 µM. In addition, the TGI with BT-549 breast was determined as 5.92 µM; in the assay on DU-145 prostate, 9.48 µM; with HS 578T breast it was 14.7 µM; in the assay with MDA-MB-435, 10.6 µM; in the assay with PC-3 prostate it was 53.2 µM.

On to `CC1(C)CC(n2cnc(-c3ccc(F)cc3)c2-c2ccnc(N)n2)CC(C)(C)N1`, for which the GI50 with BT-549 breast, in the assay on DU-145 prostate, in the assay with HS 578T breast, in the assay with MDA-MB-435 and with PC-3 prostate was over 25 µM throughout. For the same molecule, the TGI in the assay with BT-549 breast, in the assay on DU-145 prostate, with HS 578T breast, in the assay on MDA-MB-435 and in the assay with PC-3 prostate was over 25 µM each time.

For `Cc1ccc(/C=C/C(=O)c2sc(-c3cccnc3)nc2C)cc1`, the TGI in the assay on DMS 273 small cell lung, in the assay with HOP-18 NSCLC and in the assay on SNB-78 CNS was over 100 µM each time.

Turning to `c1cc(OCCN2CCCCC2)ccc1CNc1ccc2nc(CCC3CCCCC3)[nH]c2c1`, the GI50 in the assay with BT-549 breast was 1.71 µM; in the assay with DU-145 prostate, 3.33 µM; with HS 578T breast it was 1.64 µM; with MDA-MB-435 it was 1.63 µM; in the assay on PC-3 prostate it was 1.6 µM. Besides, the TGI in the assay with BT-549 breast came out at 3.87 µM; with DU-145 prostate it was 11.5 µM; in the assay with HS 578T breast, 4.64 µM; in the assay on MDA-MB-435 it was 3.09 µM; in the assay with PC-3 prostate, 3.71 µM.
